Marks after values point to notes of the source that are not given here.
How the values were obtained:
[1] = test system: fatty acid synthesis in B. napus cells; test: 14C-acetate / 14C-malonate labeling of lipids (feedback inhibition of fatty acid synthesis); assay type: cell-based, Brassica napus
Method: All radioisotopes were obtained from American Radiolabeled Chemicals (St. Louis, Mo. USA). Labeling was conducted on cells 5 days after subculturing with a culture density of ˜20 mg FW mL^−1 and that had medium refreshed 16 h prior. For labeling, three 1 mL aliquots of cells were carefully removed from each flask and were labeled with either 0.2 μCi of 1,2-^14C-acetate (50-60 mCi mmol^−1) or 2-^14C-malonate (40-60 mCi mmol^−1) for 15 minutes at 25° C. with occasional shaking. Haloxyfop (Sigma) was dissolved in DMSO and added 30 min prior to labeling. Lipids were extracted and separated by TLC as described above. Radioactivity was detected by phosphorimaging and was quantified using ImageQuant software (GE Healthcare, Piscataway, N.J., USA). Incorporation of label into individual fatty acids was determined by making FAMEs as described above, separating the methyl esters by TLC as described in (Koo, Fulda, Browse and Ohlrogge 2005, Plant J, 44, 620-632) and measuring radioactivity by phosphorimaging.
Feedback inhibition of fatty acid synthesis was measured by the addition of a ^14C-acetate tracer. […] Sterol synthesis is dependent on acetyl-CoA and ATP, both of which are required for fatty acid synthesis. Therefore, if fatty acid synthesis is inhibited due to substrate limitation; so should be sterol biosynthesis. ^14C-acetate incorporation into sterols was unaffected by Tween-80 feeding, while incorporation into free fatty acids mirrored that of total lipids (FIG. 5), showing that the effect is restricted to fatty acid synthesis. […] Three hour time points were used for the remainder of this study to separate the period of maximum feedback inhibition from any lipid homeostatic mechanisms arising from the gross fatty acid compositional changes caused by long term Tween-80 feeding.
Plants contain plastidic and cytosolic ACCase and F AS enzyme systems, both of which are capable of incorporating ^14C-acetate into fatty acids. Comparing the distribution of label in individual fatty acid species can therefore provide information on the relative contribution of these pathways. […] The degree to which ^14C-acetate incorporation is inhibited by haloxyfop is proportional to cytosolic elongation activity, whereas haloxyfop-resistant incorporation is from the de nova pathway inside the plastid.
To separate these possibilities, we exploited the fact that exogenous malonate can be converted to malonyl-CoA and used by FAS, bypassing the ACCase reaction (Kannangara et al. 1973, Plant Physiol, 52, 156-161). If ACCase is the only point of inhibition then the rate of ^14C-malonate labeling of de novo fatty acids should be the same in cultures with or without Tween-80. […] Therefore ACCase, and not F AS, is inhibited by Tween-80 feeding. When combined, the data from FIG. 6 unambiguously identify plastidic ACCase as the target of Tween-80 induced feedback inhibition.

[2] = test system: genes encoding plastidic ACCase subunits; test: qPCR analysis of genes encoding plastidic ACCase subunits; assay type: cell-based, Brassica napus; conditions: 10 mM Tween-80, three hour treatment; mean of three repeats ± SE; 0 mM = 1
Method: RNA was isolated from cultured cells using Trizol Reagent (Invitrogen, Carlsbad, Calif., USA) and was treated with DNase. cDNA was synthesized from 1 μg of total RNA using the Bio-Rad (Hercules, Calif., USA) iScript cDNA synthesis kit. qPCR was performed with 1:50 of the cDNA product and SSO Fast EvaGreen supermix (Bio-Rad). Reference genes were ACT7 and UBC21 using primers as described previously (Chen et al. 2010 Anal Biochem, 405, 138-140). Primers for experimental genes were as follows: BC, biotin carboxylase (GenBank:A Y034410.1), F-[…] (SEQ ID No. 28) and R-[…] (SEQ ID No. 29); BCCP, biotin carboxyl carrier protein (GenBank: X90730.1), F-[…] (SEQ ID No. 30), R-[…] (SEQ ID No. 31); CT-α, carboxytransferase-α (GenBank GQ341624.1), F-[…] (SEQ ID No. 32), R-[…] (SEQ ID No. 33); CT-β, carboxytransferase-β (GenBank: Z50868.1), F-[…] (SEQ ID No. 34), R-[…] (SEQ ID No. 35). Relative expression level was calculated using REST software (Qiagen, Valencia, Calif., USA).
Gene expression analysis and enzyme assays were performed to better understand the apparent reduction in ACCase activity during Tween-80 feeding. Quantitative real-time PCR was used to measure the expression of genes encoding plastidic ACCase subunits. The specific genes selected for analysis were those originally identified as being embryo expressed in Brassica napus plants (Elborough et al. 1996, Biochemical Journal, 315, 103-112). […] Desalted extracts gave the same result. […] If dephosphorylation is involved in feedback, then treatment with phosphatase would be expected to reduce ACCase activity from inhibited cells to a lesser extent than from the control. If PII interaction is involved, then it is possible that incubation in the presence of 2-oxoglutarate would […] ACCase from a Tween-fed extract more than the control.

[3] = test system: ACCase; test: ACCase enzyme assay on crude cell extracts; assay type: biochemical, Brassica napus
Method: All chemicals were obtained from Sigma and radioisotopes from American Radiolabeled Chemicals. ACCase activity was measured as the acetyl-CoA dependent incorporation of ^14C—NaHC03 into acid and stable products. Crude cell extracts were prepared by grinding fresh cells in 3 volumes (w/v) of 50 mM Tris-Cl, pH 7.5, 100 mM KCl, 5 mM MgCl2, 1 mM DTT, 0.1% TritonX-100, 10% glycerol, and plant protease inhibitor cocktail (Sigma). Homogenate was gently mixed on ice for 10 min and then centrifuged for 5 min at 3000 g. Desalting of extracts was done with PD-10 columns (GE Life Sciences). […] Reactions were initiated by the addition of 5 μlL cell extract and were stopped by the addition of 15 μL 12 N HCL. The contents were dried completely at 55° C. and the solids were resuspended in 30 μL water and counted by liquid scintillation spectroscopy. Minus acetyl-CoA controls were always included. Assays went for 30 min, except when measuring the effects of metabolites (10 min). Metabolites were added to the reaction immediately after cell extract to preserve labile thioester bonds. FFA stock solutions were made in ethanol and acyl-CoAs were suspended in water.

Relative gene expression BC [2]: 0.91 ± 0.17
Relative gene expression BCCP [2]: 1.32 ± 0.58
Relative gene expression CT-α [2]: 1.02 ± 0.33
Relative gene expression CT-β [2]: 1.18 ± 0.29
Substance: Tween-80
reduction of incorporation of 14C-acetate into fatty acids ([1]; 3 hours of 10 mM Tween-80 feeding): 40%
incorporation of 14C-malonate into 16 and 18 carbon fatty acids ([1]; 3 hours of 10 mM Tween-80 feeding, compared to 14C-acetate labeled controls): not inhibited
14C-acetate incorporation into sterols ([1]; Tween-80 feeding): unaffected
reversibility of feedback inhibition after removal ([1]; after removal of Tween-80 following 3 hour exposure to 10 mM): completely reversible
haloxyfop-resistant 14C-acetate incorporation ([1]; cultures with 10 mM Tween-80): reduced by about half
Relative 14C-acetate incorporation (% control) ([1]; relative to a control sample without any Tweens, mean of three repeats ± SD): 50.9 ± 7.0 % control
reduction of rate of 14C-acetate incorporation into lipids ([1]; three hours after addition of 10 mM Tween-80): 40%
ACCase activity ([3]; crude extracts of cells fed 10 mM Tween-80 for three hours, mean of four repeats ± SD): 1.73 ± 0.10^a nmol min^−1 mg^−1
effect on ACCase activity ([3]; included in assay of crude cell extract, FFA up to 10 μM): no effect
